Experimental data taken from patent publication US8791102B2, “Acetanilide sphingosine-1-phosphate receptor antagonists” (Exelixis, Inc., priority 2008, dated 2014).

Target: T1, human S1P1 receptors (Homo sapiens, UniProt P21453)
T1 construct: host or cells: HEK293
Assay: S1P1R antagonist assay (fluorescent membrane potential dye, cAMP readout)
Type: cell-based
Conditions: HEK293 cells expressing human S1P1 receptors and CNG channel; 500 nM NECA; S1P1R agonist 10 nM; 90 minutes; read-out: EC50 or IC50 value

T1 sequence (P21453 whole entry): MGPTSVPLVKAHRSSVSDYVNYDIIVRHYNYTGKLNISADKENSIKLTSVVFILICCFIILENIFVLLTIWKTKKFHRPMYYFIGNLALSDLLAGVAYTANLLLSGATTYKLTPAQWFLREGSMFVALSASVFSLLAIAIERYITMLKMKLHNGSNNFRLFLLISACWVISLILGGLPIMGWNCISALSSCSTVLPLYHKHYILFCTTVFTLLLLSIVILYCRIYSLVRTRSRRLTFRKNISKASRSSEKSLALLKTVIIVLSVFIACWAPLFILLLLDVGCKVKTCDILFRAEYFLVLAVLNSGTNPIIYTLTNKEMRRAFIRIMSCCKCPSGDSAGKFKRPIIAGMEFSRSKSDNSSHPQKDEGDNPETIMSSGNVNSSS

| Compound | IC50 [nM] |
| --- | --- |
| O=C(NC(COCc1ccccc1)C(=O)Nc1ccc(Oc2ccccc2)cc1)c1ccc(-c2cccc(C(F)(F)F)c2)o1 (stereo not shown) [Compound 321, N-(2-oxo-1-{[(phenylmethyl)oxy]methyl}-2-{[4-(phenyloxy)phenyl]amino}ethyl)-5-[3-(trifluoromethyl)phenyl]furan-2-carboxamide] | > 1000 |
| CCC(C)CC(=O)NC(COCc1ccccc1)C(=O)Nc1ccc(Oc2ccccc2)cc1 (stereo not shown) [Compound 385, 3-methyl-N-(2-oxo-1-{[(phenylmethyl)oxy]methyl}-2-{[4-(phenyloxy)phenyl]amino}ethyl)pentanamide] | > 1000 |
| O=C(Cc1cnc[nH]1)N[C@@H](COCc1ccccc1)C(=O)Nc1ccc(Oc2ccc(Cl)cc2)c(Cl)c1 [Compound 154, (S)-2-(2-(1H-imidazol-4-yl)acetamido)-3-(benzyloxy)-N-(3-chloro-4-(4-chlorophenoxy)phenyl)propanamide] | ≤ 300 |
| O=C(Cc1cccc(Cl)c1F)NC(COCc1ccccc1)C(=O)Nc1ccc(Oc2ccccc2)cc1 (stereo not shown) [Compound 191, 3-(benzyloxy)-2-(2-(3-chloro-2-fluorophenyl)acetamido)-N-(4-phenoxyphenyl)propanamide] | 300 to 1000 |
| O=C(Cc1ccc(OCc2ccccc2)cc1)NC(COCc1ccccc1)C(=O)Nc1ccc(Oc2ccccc2)cc1 (stereo not shown) [Compound 271, 4-benzyloxy-N-(2-oxo-1-{[(phenylmethyl)oxy]methyl}-2-{[4-(phenyloxy)phenyl]amino}ethyl)phenylacetamide] | > 1000 |
| O=C(NC(COCc1ccccc1)C(=O)Nc1ccc(Oc2ccccc2)cc1)c1ccc(Cl)cc1F (stereo not shown) [Compound 387, 4-chloro-2-fluoro-N-(2-oxo-1-{[(phenylmethyl)oxy]methyl}-2-{[4-(phenyloxy)phenyl]amino}ethyl)benzamide] | > 1000 |

The next lines start with the values.

| IC50 [nM] | Compound |
| --- | --- |
| ≤ 300 | O=C(Nc1ccc(Oc2ccc(F)cc2)cc1)[C@@H]1C[C@@H](Cc2ccccc2F)CN1C(=O)Cn1nccn1 [Compound 107, (2S,4R)-1-(2-(2H-1,2,3-triazol-2-yl)acetyl)-4-(2-fluorobenzyl)-N-(4-(4-fluorophenoxy)phenyl)pyrrolidine-2-carboxamide] |
| 300 to 1000 | O=C(CN1CCN(c2ccc(F)cc2)CC1)N[C@@H](COCc1ccccc1)C(=O)Nc1ccc(Oc2ccc(F)cc2)cc1 [Compound 218, (S)-3-(benzyloxy)-N-(4-(4-fluorophenoxy)phenyl)-2-(2-(4-(4-fluorophenyl)piperazin-1-yl)acetamido)propanamide] |
| ≤ 300 | O=C(Nc1ccc(Oc2ccc(F)cc2)cc1)[C@@H]1C[C@@H](Cc2ccc(F)cc2Cl)CN1C(=O)Cn1nccn1 [Compound 5, (2S,4R)-1-(2-(2H-1,2,3-triazol-2-yl)acetyl)-4-(2-chloro-4-fluorobenzyl)-N-(4-(4-fluorophenoxy)phenyl)pyrrolidine-2-carboxamide] |
| ≤ 300 | O=C(Nc1ccc(Oc2ccc(F)cc2)cc1)[C@@H]1C[C@@H](Cc2ccc(F)cc2)CN1C(=O)Cn1ccnn1 [Compound 75, (2S,4R)-1-(2-(1H-1,2,3-triazol-1-yl)acetyl)-4-(4-fluorobenzyl)-N-(4-(4-fluorophenoxy)phenyl)pyrrolidine-2-carboxamide] |
| ≤ 300 | CS(=O)(=O)CC(=O)N1C[C@H](Cc2ccccc2)C[C@H]1C(=O)Nc1ccc(Oc2ccc(F)cc2)cc1 [Compound 87, (2S,4R)-4-benzyl-N-(4-(4-fluorophenoxy)phenyl)-1-(2-(methylsulfonyl)acetyl)pyrrolidine-2-carboxamide] |
| ≤ 300 | O=C(Nc1ccc(Oc2ccc(F)cc2)cc1)[C@@H]1C[C@@H](Cc2ccccc2)CN1C(=O)Cc1c(F)cccc1F [Compound 95, (2S,4R)-4-benzyl-1-(2-(2,6-difluorophenyl)acetyl)-N-(4-(4-fluorophenoxy)phenyl)pyrrolidine-2-carboxamide] |
| ≤ 300 | O=C(Nc1ccc(Oc2ccc(F)cc2)cc1)[C@@H]1C[C@@H](Cc2ccc(F)cc2F)CN1C(=O)Cn1ccnn1 [Compound 267, (2S,4R)-1-(2-(1H-1,2,3-triazol-1-yl)acetyl)-4-(2,4-difluorobenzyl)-N-(4-(4-fluorophenoxy)phenyl)pyrrolidine-2-carboxamide] |
